Test results published in patent US12528777B2, “Quinazolinones derivatives for treatment of non-alcoholic fatty liver disease, preparation and use thereof” (Council of Scientific and Industrial Research, priority 2020, dated 2026).
Entries after “also recorded” stand apart in the source; their conditions may differ.

Legend:
HepG2 cells [1] = test: Basal oxygen consumption rate (OCR) by Seahorse; assay type: cell-based; conditions: 5 μM, 24 hours
Procedure: HepG2 cells were plated in Seahorse cell culture microplates (24 well). Cells were treated with 5 μM of compounds 9, 107, 238 and 238a for 24 hours. The calibrator plate was dipped in the calibrator solution and incubated overnight at 37° C. in a non-CO2 incubator. The next day, cells were washed with Agilent Seahorse XF Base Medium, Minimal DMEM twice, making sure to leave at least 50 μl of media in the wells and incubated for 1 hour at 37° C. in a non-CO2 incubator. Following this, oxygen consumption rate was measured in the Seahorse instrument. FIG. 12 illustrates basal oxygen consumption rate of compounds 9, 107, 238a, and 238.

ATGL = ATGL level in primary mouse hepatocytes (western blot); assay type: cell-based; conditions: 24 hours
Procedure: To further strengthen the efficiency of the compounds 9 and 107, primary hepatocytes were isolated from mice and these compounds were treated in a dose dependent manner for 24 hours. Primary hepatocytes and adipose tissue explants were isolated from mice and subjected to compound treatment for 24 hours at the doses of 100 nM, 500 nM and 1 μM. Post cell harvesting, western blot was carried out with the lysate to check the ATGL level. ATGL and COP1 antibodies were used. Actin served the purpose of a loading control.
1. Hepatocytes—2-4 months old chow-fed black male mouse (C57bl/6) was sacrificed using chloroform (SRL) and was cleaned with 70% ethanol. […] Blood was drawn from the heart in order to prevent backflow into liver while perfusion. The butterfly cannula was inserted into the PV and 20 ml of HBSS (Hank's Balanced Salt Solution; 5 mM KCl, 0.4 mM KH2PO4, 4 mM NaHCO3, 140 mM NaCl, 0.3 mM Na2HPO4, 6 mM Glucose, HEPES, 0.5 mM MgCl2·6H2O, 0.4 mM MgSO4·7H2O, 0.5 mM EDTA; not containing 1 mM CaCl2)) was allowed to pass through the liver (Perfusion) at a constant flow rate of 3 ml/min, maintained by Masterflex digital peristaltic pump (Cole-Parmer). The IVC was cut as soon as the passage of the buffer through the liver began, so that blood and perfusate from liver is drained through the IVC. The liver blanched and became pale in color upon this treatment.
After the passage of HBSS, 25 ml of Collagenase (Roche) solution (1 mg/ml) in HBSS (containing 1 mM CaCl2)) was allowed to pass through the liver at a constant flow rate of 2 ml/min. After this digestion, the flow was stopped, the cannula removed and the pale and soggy lobes of the liver were gently excised from the body. The gall bladder was removed from the isolated liver. The pieces of digested liver tissue were then minced on a 10 cm culture plate in HBSS (containing 1 mM CaCl2)). The resulting suspension was then passed through a […] cell strainer (SPL) to allow hepatocytes to pass through to the filtrate and retain cellular clumps and undigested tissue. The filtrate was centrifuged at 50 g for 2 minutes at 4° C. […]

HepG2 cells [2] = test: Confocal microscopy: lipid droplets in oleate induced HepG2 cells; assay type: cell-based; set-up: key to Reduction in Lipid Droplets: + = slight or in insignificant; ++ = Moderate; +++ and ++++ = active; +++ and ++++ = active; +++++ = very active; conditions: for Number of lipid droplets: HepG2 cells, 250 μM oleate induction; for Reduction in Lipid Droplets: oleate induced HepG2 cells, score
Procedure, shortened: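 HepG2 cells were loaded with 250 μM oleate and given compound in DMSO (10 μM screen; 10 nM–5 μM dose series) for 24 h; BSA as negative control. Lipid droplets stained with BODIPY/Hoechst, imaged confocally; mean droplets per cell counted over ~20 cells versus oleate-only cells.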

[3] = Lipophilicity assay (octanol/buffer); assay type: physicochemical; conditions: for logD: n-octanol / 10 mM sodium phosphate buffer pH 7.4, LC-UV; for Lipophilicity class from Log D: pH 7.4
Procedure: 1.56 g NaH2PO4·2H2O was dissolved in 0.5 L water in a 1 L beaker. After adjusting pH to 7.4 using NaOH solution, the volume was made up to 1 L. Equal volumes of sodium phosphate buffer (10 mM, pH 7.4) and n-octanol were added to a separation funnel and mixed thoroughly by shaking and inverting the funnel several times. The two layers were allowed to separate for overnight and then dispensed in two separate glass bottles. 10 mM stock solution was prepared in 100% DMSO and stored at 4° C. 495 μL of organic phase (1-octanol) was added to each well of a 2 mL deep well plate, followed by 495 μL of buffer and 10 μL of test compound was added. The plate was incubated for 3 hr at room temperature on a plate shaker at 500 rpm. After incubation, the samples were allowed to equilibrate for 20 min and then centrifuged at 4000 rpm for 30 min for complete phase separation and analysed by LC-UV.
Log D=Log (area of octanol/area of buffer)

Row | Structure (SMILES) | Basal oxygen consumption rate (HepG2 cells [1]) | ATGL level in primary mouse hepatocytes (ATGL) | Number of lipid droplets (HepG2 cells [2]) | Reduction in Lipid Droplets (HepG2 cells [2]) | logD [3] | Lipophilicity class from Log D [3]
1 | COCCn1cnc2ccc(NC(=O)Nc3cccc(C(C)=O)c3)cc2c1=O [Compound 9, 1-(3-acetylphenyl)-3-(3-(2-methoxyethyl)-4-oxo-3,4-dihydroquinazolin-6-yl)urea] | higher oxygen consumption rate compared to control; also recorded: increase in the basal OCR values | increase ATGL level; also recorded: subtle inclination towards increasing ATGL level | decrease in the number of lipid droplets | ++++ |  | 
2 | COCCn1c(C)nc2ccc(NC(=O)Nc3cccc(C(C)=O)c3)cc2c1=O [Compound 107, 1-(3-acetylphenyl)-3-(3-(2-methoxyethyl)-2-methyl-4-oxo-3,4-dihydroquinazolin-6-yl)urea] | higher oxygen consumption rate compared to control; also recorded: increase in the basal OCR values | increase ATGL level; also recorded: subtle inclination towards increasing ATGL level |  | ++++ |  | 
3 | CC(=O)c1cccc(NC(=O)Nc2ccc3ncn(CCCN4CCOCC4)c(=O)c3c2)c1 [Compound 139, 1-(3-acetylphenyl)-3-(3-(3-morpholinopropyl)-4-oxo-3,4-dihydroquinazolin-6-yl)urea] |  |  | reduction in lipid droplets | +++ | -0.5 | hydrophilic
4 | COCC(C)n1cnc2ccc(NC(=O)Nc3cccc(C(C)=O)c3)cc2c1=O (stereo not drawn) [Compound 179, 1-(3-acetylphenyl)-3-(3-(1-methoxypropan-2-yl)-4-oxo-3,4-dihydroquinazolin-6-yl)urea] |  |  |  |  | 1.69 | ideal lipophilicity
5 | COCCn1c(-c2cccnc2)nc2ccc(NC(=O)Nc3cccc(C(C)=O)c3)cc2c1=O [Compound 215, 1-(3-acetylphenyl)-3-(3-(2-methoxyethyl)-4-oxo-2-(pyridin-3-yl)-3,4-dihydroquinazolin-6-yl)urea] |  |  |  |  | 0.42 | hydrophilic
6 | COCCn1c(-c2ccncc2)nc2ccc(NC(=O)Nc3cccc(C(C)=O)c3)cc2c1=O [Compound 219, 1-(3-acetylphenyl)-3-(3-(2-methoxyethyl)-4-oxo-2-(pyridin-4-yl)-3,4-dihydroquinazolin-6-yl)urea] |  |  |  |  | 0.19 | hydrophilic
7 | COCCn1c(CN2CCCCC2)nc2ccc(NC(=O)Nc3cccc(C(C)=O)c3)cc2c1=O [Compound 238, 1-(3-acetylphenyl)-3-(3-(2-methoxyethyl)-4-oxo-2-(piperidin-1-ylmethyl)-3,4-dihydroquinazolin-6-yl)urea] | higher oxygen consumption rate compared to control; also recorded: increase in the basal OCR values | increase ATGL and COP1 levels dose dependently; also recorded: enhance ATGL levels at 1 μM and 5 μM doses |  |  | 1.6 | ideal lipophilicity
